Laboratory results published in US20030176381A1, “Hyaluronic acid in the treatment of cancer” (priority 2002, published 2003).
Each block holds one compound with its values, some of them ahead of it.

Columns and labels:
B16F1 tumors [1] = assay: Example 16: HA, CIS, 5-FU on B16F1 tumors in mice; type: in vivo, female C57BL/6 mice; conditions: vs Group 1 (saline); intravenously day 0 and at 3 day intervals for 4 weeks; HA 0.16-16.0 mg/kg, CIS 0.01-1.0 mg/kg or 5-FU 1.0-100.0 mg/kg
Experimental: Effect of saline, HA, CIS, 5-FU, HA+CIS and HA+5-FU on B16F1 tumors in mice 5 B16F1 cancer cells are implanted subcutaneously into 224 female C57BL/6 mice. The mice are divided into 28 groups of 8 mice (Table 16).
(§1) Saline, HA, CIS, 5-FU, HA+CIS and HA+5FU are administered intravenously in saline on day 0 and at 3 day intervals for 4 weeks (10 injections) at which time the mice are sacrificed and tumor mass and number of metastases are determined.

LNCaP tumors (CD44 null) [2] = assay: Example 15: HA, CIS, 5-FU on LNCaP tumors in mice; type: in vivo, male nude BALB/c mice; conditions: vs Group 1 (saline); intravenously day 0 and at 3 day intervals for 4 weeks; HA 0.16-16.0 mg/kg, CIS or 5-FU 0.1-10.0 mg/kg
Experimental: Effect of saline, HA, CIS, 5-FU, HA+CIS andHA+5-FU on LNCaP tumors in mice LNCaP cancer cells (CD44 null) are implanted subcutaneously into 224 male nude BALB/c mice. The mice are divided into 28 groups of 8 mice (Tablel5).
Saline, HA, CIS, 5-FU, HA+CIS and HA+5FU are administered intravenously in saline on day 0 and at 3 day intervals-for 4 weeks-(1IOinjections) at which time the mice are sacrificed and tumor mass and number of metastasis are determined.

[3] = system: RT-4 human bladder cancer cells; assay: MTT cell proliferation, RT-4; type: cell-based
Experimental: Cell proliferation was measured using dimethylthiazoldiphenyltetrazolium (MTT) reduction (Mosman et al. J. Immunol. Methods 65:55, 1983). Unless otherwise stated, 100 Al of 5 mg of MTT (Sigma-Aldrich, St. Louis, Mo., USA) dissolved in 1 ml of PBS was added into each well. After 4 h, medium was removed from each well, 1.0 ml of acid-isopropanol (0.04 N HCI in isopropanol) was added and reduced MTT was solubilized by mixing. Absorbency of the reaction product was measured at a wavelength of 570 nm using a multiplate spectrophotometer reader (Elx800 Model, Bio-TEK Instruments Inc., Winooski, Vt., USA). […] PC-3, LNCAP and Du-145 human prostate cancer cells; MCF-7 human breast cancer cells; HT-1080 human fibrosarcoma cancer cells; B16F1 murine melanoma cells; and, UMUC-3, RT-4, HT-1376 and T-24 human bladder cancer cells were incubated with 0.8, 8.0 and 80 μg/ml of 5.0-7.5 x 10^5 Da HA (Table 2). […] MTT was used at 50 μl per well. HT-1376, RT-4 and T-24 human bladder cancer cells were incubated with 0.8 pg/ml of 5.0-7.5 x 10^5 Da HA +1.0 ug/ml of MCC (Table 5). […] MCF-7 human breast cancer cells; RT-4, T-24, HT-1376 and UMUC-3 human bladder cancer cells; and, PC-3, Du-145 and LNCaP prostate cancer cells (Table 8)

PC3 tumors [4] = assay: Example 14: HA, CIS, 5-FU on PC3 tumors in mice; type: in vivo, male nude BALB/c mice; conditions: vs Group 1 (saline); intravenously day 0 and at 3 day intervals for 4 weeks; HA 0.16-16.0 mg/kg, CIS or 5-FU 0.1-10.0 mg/kg
Experimental: PC-3 cancer cells are implanted subcutaneously into 224 male nude BALB/c mice. The mice are divided into 28 groups of 8 mice (Table 14).
as §1

[5] = system: MCF-7 human breast cancer cells; assay: MTT cell proliferation, MCF-7; type: cell-based; conditions: Homo sapiens, MCF7, 5-FU at 10 μg/ml alone (saline instead of HA)
Experimental: (§2) Cell proliferation was measured using dimethylthiazoldiphenyltetrazolium (MTT) reduction (Mosman et al. J. Immunol. Methods 65:55, 1983). Unless otherwise stated, 100 Al of 5 mg of MTT (Sigma-Aldrich, St. Louis, Mo., USA) dissolved in 1 ml of PBS was added into each well. After 4 h, medium was removed from each well, 1.0 ml of acid-isopropanol (0.04 N HCI in isopropanol) was added and reduced MTT was solubilized by mixing. Absorbency of the reaction product was measured at a wavelength of 570 nm using a multiplate spectrophotometer reader (Elx800 Model, Bio-TEK Instruments Inc., Winooski, Vt., USA).
(§3) Unless stated otherwise 1.0 x 10^5 cells/ml were seeded in 6-well flat-bottom tissue culture plates and were maintained for 48 h at 370 C in a 5% CO2 atmosphere.
(§4) PC-3, LNCAP and Du-145 human prostate cancer cells; MCF-7 human breast cancer cells; HT-1080 human fibrosarcoma cancer cells; B16F1 murine melanoma cells; and, UMUC-3, RT-4, HT-1376 and T-24 human bladder cancer cells were incubated with 0.8, 8.0 and 80 μg/ml of 5.0-7.5 x 10^5 Da HA (Table 2).
(§5) Unless stated otherwise 2.0 x 10^4 cells/ml were seeded in 24-well plates and were maintained for 48 h at 370 C in a 5% CO2 atmosphere. MTT was used at 50 μl per well.
(§6) T-24 human bladder cancer cells, PC-3 and Du-145 human prostate cancer cells, and MCF-7 human breast cancer cell were incubated with saline or with 80.0 jg/ml of 5.0-7.5 x 105 Da HA +1.0 μg/ml of M-DNA (Table 4).
MTT was used at 50 µl per well.
Example 8 s HA potentiation of the anti-neoplastic effect ofchemotherapeutic drugs RT-4 human bladder cancer cells and MCF-7 human breast cancer cells were incubated as in Example 6 with 0.0, 0.008 or 0.08 pg/ml of 5.0-7.5 x 10^5 Da HA +0.1 jg/ml of CIS, +1.0 jg/ml of 5-FU or +10 jig/ml of 5-FU (Table 7).
(§7) CD44 expression and the inhibition of proliferation by 5.0-7.5 x 10^5 Da HA were measured using Jurkat T cell leukemia cells; MCF-7 human breast cancer cells; RT-4, T-24, HT-1376 and UMUC-3 human bladder cancer cells; and, PC-3, Du-145 and LNCaP prostate cancer cells (Table 8)

[6] = system: MCF-7 human breast cancer cells; assay: MTT cell proliferation, MCF-7; type: cell-based; conditions: MCF-7 (2.5 X 10^5 cells/ml); oligonucleotide 100 μg/ml alone (HA 0.0 μg/ml)
[7] = system: Du-145 human prostate cancer cells; assay: MTT cell proliferation, Du-145; type: cell-based; conditions: HA 8.0 μg/ml, 48 h
Experimental: as §2, §3, §4
(§8) PC-3. LNCaP and Du-145 human prostate cancer cells were incubated with 8.0 jg/ml of 5.0-7.5 x 105 Da HA or of <1.5 x 10^4 Da HA (Table 3).
as §5, §6, §7

[8] = system: PC-3 human prostate cancer cells; assay: MTT cell proliferation, PC-3; type: cell-based; conditions: 48 h
Experimental: as §2, §3, §4, §8, §5, §6, §7

[9] = system: LNCaP human prostate cancer cells; assay: MTT cell proliferation, LNCaP; type: cell-based; conditions: 48 h
Experimental: as §2, §3, §4, §8, §7

PC3 tumors [10] = assay: Example 11: HA, M-DNA, MCC on PC3 tumors in mice; type: in vivo, male nude BALB/c mice; conditions: vs Group 1 (saline); intravenously day 0 and at 3-day intervals for 4 weeks; HA 0.16-16.0 mg/kg, M-DNA or MCC 0.02-2.0 mg/kg
Experimental: PC-3 human prostate cancer cells are implanted subcutaneously into 224 male nude BALB/c mice. The mice are divided into 28 groups of 8 mice (Table 11).
(§9) Saline, HA, M-DNA, MCC, HA+M-DNA and HA+MCC are administered intravenously on day 0 and at 3-day intervals for 4 weeks (10 injections) at which time the mice are sacrificed and tumor mass and number of metastases are determined.

colon-26 cancer cells = conditions: HA alone; colon-26 cells express high levels of HA receptors; cited from earlier work
[11] = system: B16F10 murine melanoma tumor; conditions: HA 1 mg/ml over 7 days by Alzet osmotic pump into the immediate vicinity of the tumor; cited from earlier work
[12] = system: rectal, gastric, breast, prostate and endometrial cancers; conditions: HA >750 mg/kg administered with various other therapeutic agents over various periods of time; cited from earlier work
LNCaP tumors (CD44 null) [13] = assay: Example 12: HA, M-DNA, MCC on LNCaP tumors in mice; type: in vivo, male nude BALB/c mice; conditions: vs Group 1 (saline); intravenously day 0 and at 3-day intervals for 4 weeks; HA 0.16-16.0 mg/kg, M-DNA or MCC 0.02-2.0 mg/kg
Experimental: Effect of saline, HA, M-DNA, MCC, HA+M-DNA and HA +MCC on LNCaP tumors in mice LNCaP human prostate cancer cells (CD44 null) are implanted subcutaneously into 224 male nude BALB/c mice. The mice are divided into 28 groups of 8 mice (Table 12).
as §9

B16F1 tumors [14] = assay: Example 13: HA, M-DNA, MCC on B16F1 tumors in mice; type: in vivo, female C57BL/6 mice; conditions: vs Group 1 (saline); intratumorally day 0 and at 3 day intervals for 4 weeks; HA 0.16-16.0 mg/kg, M-DNA or MCC 0.02-2.0 mg/kg
Experimental: Example 13 Effect of saline, HA, M-DNA, MCC, HA+M-DNA and HA +MCC on B16F1 tumors in mice B16F I cancer cells are implanted […] into 224 female C57BL/6 mice. The mice are divided into 28 groups of 8 mice (Table 13).
Saline, HA, M-DNA, MCC, HA+M-DNA and HA+MCC are administered intratumorally in saline on day 0 and at 3 day intervals for 4 weeks (10 injections) at which time the mice are sacrificed and tumor mass and number of metastases are determined.

[15] = molecular target: CD44 cell surface HA receptor (human) (UniProt P16070); assay: flow cytometry, FITC-CD44 on HT-1376 human bladder cancer cells (unstained cells: 4)
[16] = molecular target: CD44 cell surface HA receptor (human) (UniProt P16070); assay: flow cytometry, FITC-CD44 on Du-145 human prostate cancer cells (unstained cells: 3)
[17] = molecular target: CD44 cell surface HA receptor (human) (UniProt P16070); assay: flow cytometry, FITC-CD44 on UMUC-3 human bladder cancer cells (unstained cells: 3)
[18] = molecular target: CD44 cell surface HA receptor (human) (UniProt P16070); assay: flow cytometry, FITC-CD44 on PC-3 human prostate cancer cells (unstained cells: 6)
[19] = molecular target: CD44 cell surface HA receptor (human) (UniProt P16070); assay: flow cytometry, FITC-CD44 on RT-4 human bladder cancer cells (unstained cells: 4)
[20] = molecular target: CD44 cell surface HA receptor (human) (UniProt P16070); assay: flow cytometry, FITC-CD44 on T-24 human bladder cancer cells (unstained cells: 3)
[21] = molecular target: CD44 cell surface HA receptor (human) (UniProt P16070); assay: flow cytometry, FITC-CD44 on MCF-7 human breast cancer cells (unstained cells: 3)

Chain of UniProt P16070 (P16070 21-742): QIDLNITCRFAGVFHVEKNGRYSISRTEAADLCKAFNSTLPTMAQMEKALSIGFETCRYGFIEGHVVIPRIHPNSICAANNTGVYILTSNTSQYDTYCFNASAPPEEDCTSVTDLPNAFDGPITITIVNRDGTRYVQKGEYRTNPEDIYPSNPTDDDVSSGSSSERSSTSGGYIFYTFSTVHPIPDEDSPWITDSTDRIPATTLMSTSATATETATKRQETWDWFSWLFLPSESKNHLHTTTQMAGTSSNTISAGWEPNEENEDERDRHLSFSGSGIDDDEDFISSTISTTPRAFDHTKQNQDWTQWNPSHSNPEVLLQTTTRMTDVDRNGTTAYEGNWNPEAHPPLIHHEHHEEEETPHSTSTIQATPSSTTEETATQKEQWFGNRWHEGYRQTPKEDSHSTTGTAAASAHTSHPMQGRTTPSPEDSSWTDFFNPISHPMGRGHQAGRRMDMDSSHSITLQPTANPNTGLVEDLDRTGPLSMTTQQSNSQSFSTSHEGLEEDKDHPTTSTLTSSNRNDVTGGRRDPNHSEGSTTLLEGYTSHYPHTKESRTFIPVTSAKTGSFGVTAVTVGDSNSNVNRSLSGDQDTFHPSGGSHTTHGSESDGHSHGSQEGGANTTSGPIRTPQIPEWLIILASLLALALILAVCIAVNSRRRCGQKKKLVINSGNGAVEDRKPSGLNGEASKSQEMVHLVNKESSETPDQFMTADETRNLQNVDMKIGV

Compound: O=c1[nH]cc(F)c(=O)[nH]1 [5-FU, 5-fluorouracil]
number of metastases (B16F1 tumors [1]): fewer metastases
tumor mass (B16F1 tumors [1]): less tumor mass
number of metastasis (LNCaP tumors (CD44 null) [2]): fewer metastases
tumor mass (LNCaP tumors (CD44 null) [2]): less tumor mass
inhibition at 1 µg/mL ([3]; Homo sapiens, 5-FU at 1.0 μg/ml alone (saline instead of HA)): 14%
number of metastases (PC3 tumors [4]): fewer metastases
tumor mass (PC3 tumors [4]): less tumor mass
inhibition at 10 µg/mL [5]: 18%

Compound: N.N.[Cl][Pt][Cl] [CIS, cisplatin]
number of metastases (B16F1 tumors [1]): fewer metastases
tumor mass (B16F1 tumors [1]): less tumor mass
number of metastasis (LNCaP tumors (CD44 null) [2]): fewer metastases
tumor mass (LNCaP tumors (CD44 null) [2]): less tumor mass
% INHIBITION of cell proliferation ([3]; CIS at 0.1 μg/ml alone (saline instead of HA)): 2%
number of metastases (PC3 tumors [4]): fewer metastases
tumor mass (PC3 tumors [4]): less tumor mass

Compound: (G1T)13G: synthetic 27 base oligonucleotide (GTGTGTGTGTGTGTGTGTGTGTGTGTG; listed as DNA, chemistry not given here)
% INHIBITION of cell proliferation [6]: 44%

Compound: GG(GT)1GG: synthetic 6 base oligonucleotide
% INHIBITION of cell proliferation [6]: 20%

Compound: Hyaluronic acid [<1.5 × 10^4 Da HA]
% INHIBITION of cell proliferation [7]: 37%
% INHIBITION of cell proliferation ([8]; HA 8.0 μg/ml): 5%
% INHIBITION of cell proliferation ([9]; HA 8.0 μg/ml): 24%

Compound: Hyaluronic acid [HA]
number of metastases (B16F1 tumors [1]): fewer metastases
tumor mass (B16F1 tumors [1]): less tumor mass
number of metastases (PC3 tumors [10]): fewer metastases
tumor mass (PC3 tumors [10]): less tumor mass
growth of cancer cells (colon-26 cancer cells): significantly inhibits the growth
reduced tumor volume [11]: > 85%
number of metastasis (LNCaP tumors (CD44 null) [2]): fewer metastases
tumor mass (LNCaP tumors (CD44 null) [2]): less tumor mass
effect on cancers [12]: reduced or eliminated
number of metastases (PC3 tumors [4]): fewer metastases
tumor mass (PC3 tumors [4]): less tumor mass
% INHIBITION of cell proliferation ([8]; HA 80.0 μg/ml): 30%
% INHIBITION of cell proliferation ([9]; HA 80.0 μg/ml): 26%
number of metastases (LNCaP tumors (CD44 null) [13]): fewer metastases
tumor mass (LNCaP tumors (CD44 null) [13]): less tumor mass
number of metastases (B16F1 tumors [14]): fewer metastases
tumor mass (B16F1 tumors [14]): less tumor mass

mean fluorescent units (mean fluorescent units) [15]: 200
mean fluorescent units (mean fluorescent units) [16]: 450
mean fluorescent units (mean fluorescent units) [17]: 1800
mean fluorescent units (mean fluorescent units) [18]: 400
mean fluorescent units (mean fluorescent units) [19]: 60
mean fluorescent units (mean fluorescent units) [20]: 1800
mean fluorescent units (mean fluorescent units) [21]: 70
Compound: fluorescent anti-HA receptor monoclonal antibody FITC-CD44 (clone G44-26 (C26), Pharmingen)
